This is an account of results in patent US12448372B2, “Class of triaromatic compounds targeting bifunctional phosphorylation site of STAT3 and applications thereof” (SHANGHAI YUYAO BIOTECH LTD., priority 2019, dated 2025).

One experiment has as its system MKN45. The experiment is described as follows: Cell proliferation by MTS method, MKN45. The experiment is classed as cell-based. The note with it: Homo sapiens, MKN-45; Table 1, MKN45; read-out: Tumour cell proliferative activity/IC50(nM) gastric Cancer MKN45. From the text: (§1) (2) Detection of Cell Proliferation by MTS Method
(§2) The MTS assay is a method for indirectly determining the number of living cells via colourimetric method. MTS is a newly synthesised tetrazole compound that reflects cell viability, which can be reduced by succinate dehydrogenase in the mitochondria of living cells to an orange-coloured formazan with an absorbance of the reduced product measured at 490 nm being in proportion to the number of living cells, thus reflecting the cell viability. This assay can be used to evaluate the effect of the compound on the proliferation of pancreatic cancer cells, thereby determining the inhibitory effect of the compound on the proliferation of pancreatic cancer cells and to calculate the IC^50. Each cells were inoculated uniformly into a 96-well plate at a density of 1-20×10^3 cells/well, 100 μL per well, and placed in a constant temperature incubator until the cells adhered to the wall. The control group was added with the corresponding medium and the experimental groups were given different concentrations of the compound prepared by the examples of the present invention, and the cells were taken out 24-96 h after administration for observing the cell state under a microscope. Under light-proof conditions, MTS was added and well mixed, the mixture was placed in a constant temperature incubator at 37° C., and the light absorption value were measured using an enzyme marker at 490 nm and the experiment was repeated for three times, IC50 was calculated with GraphPad5 Prism software.

The test system of another experiment is HCC827. The experiment is described as follows: Cell proliferation by MTS method, HCC827. As to conditions: Homo sapiens; Table 1, HCC827; read-out: Tumour cell proliferative activity/IC50(nM) Lung Cancer HCC827. Format: cell-based.
Text: as §1, §2

The test system of a further experiment is Capan-2. As to the kind of experiment: Cell proliferation by MTS method, Capan-2. The experiment is classed as cell-based. As to conditions: for IC50: Homo sapiens.
Text: as §1, §2

The target in the next experiment is STAT3 protein (Homo sapiens, UniProt P40763). The experiment is described as follows: Binding activity to STAT3 protein by microscale thermophoresis (MST). As to conditions: purified STAT3 recombinant protein. An excerpt: (1) Determination of Binding Activities of Compounds to STAT3 Protein by Microscale Thermophoresis (MST) Method
The microscale thermophoresis (MST) technique is a simple, rapid, and accurate method for quantifying biomolecular interactions. It can measure the movement of molecules in a microscopic temperature gradient field, as well as detect changes of molecular hydration shell, charge and size. When the Nanotemper microscale thermophoresis instrument locally heated by a infrared laser, molecules will move in a directional manner, then the molecular distribution ratio in the temperature gradient field are analyzed by a fluorescence to detect whether a small molecule compound binds to a target protein. The experimental operation is as follows: firstly, compounds to be tested are diluted in a gradient using MST test buffer, total 16 concentrations being configured; subsequently, the purified STAT3 recombinant protein is labeled using the HIS tag labeling kit, and the final concentration of the labeled protein is 100-200 nM; the labeled STAT3 proteins are well mixed with the diluted compounds and incubated and protected from light for 30 minutes; finally the samples were loaded by capillary tube and detected on the instrument. The binding constants (K^D) of small molecules to STAT3 protein were analyzed by Mo. analysis software.

The next experiment concerns Huh7. As to the kind of experiment: Cell proliferation by MTS method, Huh7. As to conditions: Homo sapiens, Huh-7; Table 1, Huh7; read-out: Tumour cell proliferative activity/IC50(nM) Liver Cancer Huh7. Format: cell-based.
Text: as §1, §2

Where [1] appears, read: Table 1, Capan-2, read-out: Tumour cell proliferative activity/IC50(nM) Pancreatic Cancer Capan-2.

Where two headings read alike, the source gives them in different places.

Sequence of STAT3 protein (P40763 whole entry): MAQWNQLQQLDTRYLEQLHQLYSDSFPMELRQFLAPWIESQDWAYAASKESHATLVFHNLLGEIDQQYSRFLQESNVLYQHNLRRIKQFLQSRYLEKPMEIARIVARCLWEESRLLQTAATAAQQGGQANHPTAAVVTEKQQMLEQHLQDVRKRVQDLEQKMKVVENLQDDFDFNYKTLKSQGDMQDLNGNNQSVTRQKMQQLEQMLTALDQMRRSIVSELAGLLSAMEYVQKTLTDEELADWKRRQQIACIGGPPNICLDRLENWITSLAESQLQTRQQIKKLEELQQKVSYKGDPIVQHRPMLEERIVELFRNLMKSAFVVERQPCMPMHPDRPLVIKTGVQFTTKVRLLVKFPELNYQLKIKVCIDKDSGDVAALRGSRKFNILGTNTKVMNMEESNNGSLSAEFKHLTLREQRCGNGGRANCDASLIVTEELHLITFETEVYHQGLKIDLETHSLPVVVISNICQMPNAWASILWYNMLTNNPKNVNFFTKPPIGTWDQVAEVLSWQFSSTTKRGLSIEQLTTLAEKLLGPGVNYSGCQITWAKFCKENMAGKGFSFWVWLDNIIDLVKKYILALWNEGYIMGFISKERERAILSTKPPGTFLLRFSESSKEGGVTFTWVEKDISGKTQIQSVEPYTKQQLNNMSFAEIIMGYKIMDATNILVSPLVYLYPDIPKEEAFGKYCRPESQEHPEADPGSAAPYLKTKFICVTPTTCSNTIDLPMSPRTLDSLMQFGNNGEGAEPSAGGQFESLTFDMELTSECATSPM

On to `Cn1c(C(=O)N2CCN(Cc3ccc(OCC(F)(F)F)cc3)CC2)cc2ccc(Oc3cnc(-c4nc(-c5cccc(C(F)(F)F)c5)no4)cn3)cc21` [Example 8, (6-((5-(3-(3-(trifluoromethyl)phenyl)-1,2,4-oxadiazol-5-yl)pyrazin-2-yl)oxy)-1-methyl-1H-indol-2-yl)(4-(4-(2,2,2-trifluoroethoxy)benzyl)piperazin-1-yl)methanone], for which the IC50 in the experiment with MKN45 is less than 1 nM; in the experiment with HCC827, less than 1 nM; in the experiment with Capan-2 (Capan-2, FIG. 5B, read-out: IC50, inhibition of proliferation of pancreatic cancer cells), 0.34 nM; in the experiment on Capan-2 (setting [1]), less than 1 nM; in the experiment on Huh7 it was less than 1 nM. For the same compound, the “improvement of anti-tumor proliferative activity over OPB51602 and IACS-010759” value in the experiment on Capan-2 (pancreatic cancer cells, FIG. 5B) is recorded as 10 times. For the same compound, the Kd on STAT3 protein is less than 1 nM.
Consider `COc1ccccc1-c1noc(-c2cnc(Oc3ccc4cc(C(=O)N5CCN(Cc6ccc(OCC(F)(F)F)cc6)CC5)n(C)c4c3)cn2)n1` [Example 9, (6-((5-(3-(2-methoxyphenyl)-1,2,4-oxadiazol-5-yl)pyrazin-2-yl)oxy)-1-methyl-1H-indol-2-yl) (4-(4-(2,2,2-trifluoroethoxy)benzyl)piperazin-1-yl)methanone], for which the IC50 in the experiment with MKN45, in the experiment on HCC827, with Capan-2 (setting [1]) and with Huh7 was less than 10 nM throughout. The Kd on STAT3 protein was less than 10 nM.
For `COc1cccc(-c2noc(-c3cnc(Oc4ccc5cc(C(=O)N6CCN(Cc7ccc(OCC(F)(F)F)cc7)CC6)n(C)c5c4)cn3)n2)c1` [Example 10, (6-((5-(3-(3-methoxyphenyl)-1,2,4-oxadiazol-5-yl)pyrazin-2-yl)oxy)-1-methyl-1H-indol-2-yl) (4-(4-(2,2,2-trifluoroethoxy)benzyl)piperazin-1-yl)methanone], the IC50 with MKN45, in the experiment with HCC827, in the experiment with Capan-2 (setting [1]) and in the experiment with Huh7 was less than 10 nM each time. Also, the Kd on STAT3 protein is less than 10 nM.
In the case of `Cn1c(C(=O)N2CCN(Cc3ccc(OCC(F)(F)F)cc3)CC2)cc2ccc(Oc3cnc(-c4nc(-c5ccc(Cl)cc5)no4)cn3)cc21` [Example 11, (6-((5-(3-(4-chlorophenyl)-1,2,4-oxadiazol-5-yl)pyrazin-2-yl)oxy)-1-methyl-1H-indol-2-yl) (4-(4-(2,2,2-trifluoroethoxy)benzyl)piperazin-1-yl)methanone], the IC50 in the experiment on MKN45, in the experiment with HCC827, in the experiment on Capan-2 (setting [1]) and with Huh7 was less than 10 nM in each case. Further, the dissociation constant Kd at STAT3 protein is less than 10 nM.
`Cn1c(C(=O)N2CCN(Cc3ccc(OCC(F)(F)F)cc3)CC2)cc2ccc(Oc3cnc(-c4nc(-c5ccc(Br)cc5)no4)cn3)cc21` [Example 12, (6-((5-(3-(4-bromophenyl)-1,2,4-oxadiazol-5-yl)pyrazin-2-yl)oxy)-1-methyl-1H-indol-2-yl) (4-(4-(2,2,2-trifluoroethoxy)benzyl)piperazin-1-yl)methanone]: the IC50 in the experiment with MKN45, in the experiment on HCC827, with Capan-2 (setting [1]) and in the experiment with Huh7 was less than 10 nM in each case. For the same compound, the Kd at STAT3 protein was less than 10 nM.
In the case of `Cn1c(C(=O)N2CCN(Cc3ccc(OCC(F)(F)F)cc3)CC2)cc2ccc(Oc3cnc(-c4nc(-c5ccc(OC(F)(F)F)cc5)no4)cn3)cc21` [Example 13, (6-((5-(3-(4-(trifluoromethoxy)phenyl)-1,2,4-oxadiazol-5-yl)pyrazin-2-yl)oxy)-1-methyl-1H-indol-2-yl) (4-(4-(2,2,2-trifluoroethoxy)benzyl)piperazin-1-yl)methanone], the IC50 with MKN45, in the experiment on HCC827, with Capan-2 (setting [1]) and in the experiment with Huh7 was less than 10 nM throughout. In addition, at STAT3 protein, the Kd is less than 10 nM.
